Converted amounts (≈) assume the structure as drawn. Bounds are passed on as bounds.

The conditions of this series: buffer; pH 7.4; 200.0 µM.
As a reminder, the kinetic solubility is the concentration staying in solution when a stock, usually in DMSO, is diluted into the medium. On to `CC(C)=CCN1CCN(Cc2c[nH]c3ccccc23)CC1CCO` (stereo not given), for which the solubility (kinetic) was over 49.1 µg/mL.

As to `Cc1cc(Cl)ccc1NC(=O)CCC(=O)N/N=C/c1cccnc1`, the kinetic solubility is over 51.7 µg/mL.

`CCOC(=O)CC1C(=O)NCCN1C(=O)c1ccc(Cl)cc1` (stereo not given): the kinetic solubility is over 48.7 µg/mL.

Consider `O=C(Cn1cnc2ccccc2c1=O)c1ccc(OC(F)F)cc1`, for which the kinetic solubility turned out to be 9.2 µg/mL (≈ 27.9 µM).

The compound `COc1ccc(S(=O)(=O)N2CCCCC2)cc1NS(=O)(=O)c1ccccc1` displayed a solubility (kinetic) of 4.3 µg/mL (≈ 10.5 µM).

Compound `O=C(Nc1ccc(C(F)(F)F)cc1)c1ccc2ncsc2c1` returned a solubility (kinetic) of 4.6 µg/mL (≈ 14.3 µM).

Turning to `Cc1nccc(-c2ccc3c(c2)OCO3)n1`, the kinetic solubility turned out to be 30.3 µg/mL (≈ 141 µM).

As to `COc1cccc(C(=O)Nc2cccc3cccnc23)c1OC`, the solubility (kinetic) is under 0.3 µg/mL.

As to `COCCNC(=S)Nc1ccccn1`, the kinetic solubility is over 31.7 µg/mL.

In turn, `COc1cc(C(=O)NC23CC4CC(CC(C4)C2)C3)cc(OC)c1OC` gave a solubility (kinetic) of under 0.7 µg/mL.

In turn, `CC(C)NC(=S)N(CCc1ccncc1)C(C)C` came in with a solubility (kinetic) of 27.4 µg/mL (≈ 103 µM).

For the compound `CC(=O)NCCc1cnc[nH]1`, the solubility (kinetic) is over 23 µg/mL.

In the case of `Cc1ccccc1NC(=O)NCCCN1CCN(C)CC1`, the solubility (kinetic) was over 43.6 µg/mL.

With `CCN(CC)CC(=O)Nc1sc(C)c(C)c1C(=O)c1ccc(C)cc1`, the kinetic solubility was determined as 4.6 µg/mL (≈ 12.8 µM).

In turn, `O=C(NCc1ccncc1)NC12CC3CC(CC(C3)C1)C2` yielded a kinetic solubility of 41.3 µg/mL (≈ 145 µM).

`CCOc1ccccc1NC(=O)c1ccc(CN2CCc3ccccc3C2)cc1` had a kinetic solubility of 2.3 µg/mL (≈ 5.95 µM).

`Clc1ccc(-c2csc(-c3ccno3)n2)cc1` yielded a kinetic solubility of under 0.3 µg/mL.

The compound `CN(c1ccccc1)S(=O)(=O)c1ccc(C(=O)N2CCN(c3ccccc3Cl)CC2)cc1` returned a kinetic solubility of 6.8 µg/mL (≈ 14.5 µM).

Regarding `Cc1cc(S(=O)(=O)N2CCN(c3ccccn3)CC2)ccc1F`, the solubility (kinetic) turned out to be 3.6 µg/mL (≈ 10.7 µM).

For the compound `S=C(NCc1ccco1)Nc1ccc2c(c1)OCCO2`, the kinetic solubility was over 43.6 µg/mL.

On to `CC(=O)c1cccc(NC(=O)COC(=O)c2ccccn2)c1`, for which the kinetic solubility amounted to 35 µg/mL (≈ 117 µM).

Compound `CN(C)c1c(F)cc(C(=O)NCc2ccccc2)cc1F` came in with a solubility (kinetic) of 36 µg/mL (≈ 124 µM).

`CC(=O)c1sc(-c2ccc(Cl)cc2)cc1N` showed a solubility (kinetic) of 1.8 µg/mL (≈ 7.15 µM).

`Cc1cc(C=O)c(C)n1-c1ccc2c(c1)OCO2` gave a kinetic solubility of 24.6 µg/mL (≈ 101 µM).

For the compound `O=C(O)c1ccc(OCCN2CCCC2=O)cc1`, the kinetic solubility worked out at 27.6 µg/mL (≈ 111 µM).

In the case of `C=C(C)c1ccccc1NC(=O)CCN1C(=O)c2ccccc2S1(=O)=O`, the solubility (kinetic) was over 55.6 µg/mL.

In turn, `CCn1c(Cc2cccs2)nnc1SCC(=O)NC1CC1` had a solubility (kinetic) of over 48.4 µg/mL.

Consider `Cc1ccc(C(=O)NCC(=O)N2CCN(c3cccc(Cl)c3)CC2)s1`, for which the kinetic solubility was 2.8 µg/mL (≈ 7.41 µM).

`CCCNS(=O)(=O)c1cc2c3c(c1)CCN3C(=O)CC2` returned a kinetic solubility of over 44.2 µg/mL.

Turning to `c1cncc(-c2nc(-c3ccc4c(c3)OCCO4)cs2)c1`, the kinetic solubility was determined as 4.6 µg/mL (≈ 15.5 µM).

Take `Cc1[nH]c2ccccc2c1C(=O)C(C)OC(=O)C1CCC1` (stereo not given): the solubility (kinetic) was over 42.8 µg/mL.

In turn, `S=C(NCCc1ccccc1)N1CCOCC1` registered a solubility (kinetic) of over 37.6 µg/mL.

`CN1CCCC(OC(=O)c2ccc(C#N)cc2)C1.Cl` (stereo not given) showed a kinetic solubility of over 42.1 µg/mL.

In turn, `N#Cc1c(-c2ccccc2)cc(-c2ccccc2)[nH]c1=O` gave a solubility (kinetic) of 0.6 µg/mL (≈ 2.2 µM).

`O=C(c1ccc(-c2cccc(Cl)c2Cl)o1)N1CCOCC1` returned a solubility (kinetic) of 47.1 µg/mL (≈ 144 µM).

Compound `CN(C)c1nc(-c2cccnc2)nc(-c2ccccc2)c1C#N` came in with a solubility (kinetic) of 0.6 µg/mL (≈ 1.99 µM).

`O=C(Nc1ccccc1NC(=O)c1ccco1)c1ccccc1` registered a kinetic solubility of 17.1 µg/mL (≈ 55.8 µM).

The compound `CN(c1ccccc1)S(=O)(=O)c1ccc(C(=O)NCc2ccccc2F)cc1` came in with a solubility (kinetic) of 10.4 µg/mL (≈ 26.1 µM).

In the case of `O=C(CSc1cccc[n+]1[O-])NC1CCCCCCC1`, the kinetic solubility came out at 39.3 µg/mL (≈ 133 µM).

`CCC(Oc1ccccc1C)C(=O)N1CCCN(C)CC1` (stereo not given): the kinetic solubility is over 43.6 µg/mL.

`COc1ccc(NC(=O)Nc2ccccc2SC)c(OC)c1` had a kinetic solubility of 0.7 µg/mL (≈ 2.2 µM).

Compound `COc1ccc(N=CC2=C(O)CC(C)(C)CC2=O)cc1OC` had a kinetic solubility of over 45.5 µg/mL.

`Br.CC(Cc1ccc(O)cc1)NCC(O)c1cc(O)cc(O)c1` (stereo not given) registered a solubility (kinetic) of over 57.6 µg/mL.

For `CC(C)(CC(=O)O)CC(=O)Nc1ccccc1Oc1ccccc1`, the solubility (kinetic) is over 49.1 µg/mL.

For the compound `CC(Oc1ccc(C#N)cc1)C(=O)N1CC=C(c2ccccc2)CC1` (stereo not given), the solubility (kinetic) was 38.4 µg/mL (≈ 116 µM).

Turning to `CCOc1ccccc1NC(=S)NCCc1ccc(F)cc1`, the kinetic solubility is 25.4 µg/mL (≈ 79.8 µM).

Consider `CC1CCCC(C)N1C(=O)COC(=O)CNC(=O)c1ccccc1F` (stereo not given), for which the solubility (kinetic) was over 52.6 µg/mL.

With `Cc1ccc(/C=C2/SC(=Nc3ccc(F)cc3)NC2=O)s1`, the solubility (kinetic) stood at 0.8 µg/mL (≈ 2.51 µM).

For `CC(C)CNC(=S)N1CCC(NC(=O)c2ccco2)CC1`, the solubility (kinetic) stood at 41.9 µg/mL (≈ 135 µM).

`Cc1ccc(C(=O)NC2CCCCNC2=O)cc1C` (stereo not given) gave a kinetic solubility of over 39.1 µg/mL.

In turn, `Cc1ccc(Cl)c(N/C=C/C(=O)c2ccccc2)c1` gave a kinetic solubility of under 0.6 µg/mL.

Regarding `Cc1ccc(C(=O)N2CCc3ccccc32)cc1[N+](=O)[O-]`, the kinetic solubility was under 0.3 µg/mL.

`Cc1cc(C)c2sc(C)[n+](CCCS(=O)(=O)[O-])c2c1`: the solubility (kinetic) was found to be 38.8 µg/mL (≈ 130 µM).

In the case of `COC(=O)c1ccc(N2C(=O)C3CC=CC(C)C3C2=O)cc1` (stereo not given), the solubility (kinetic) turned out to be 20 µg/mL (≈ 66.8 µM).

As for `Cl.NCC1CC2c3ccccc3C1c1ccccc12` (stereo not given), the solubility (kinetic) is over 40.8 µg/mL.

For `S=C(Nc1ccccc1)N1CCC(Cc2ccccc2)CC1`, the solubility (kinetic) worked out at 14.5 µg/mL (≈ 46.7 µM).

As to `O=C(CCCc1ccccc1)Nc1nccs1`, the kinetic solubility is 28.5 µg/mL (≈ 116 µM).

On to `COc1ccc(OCC(=O)Nc2ccc3c(c2)OCO3)cc1`, for which the solubility (kinetic) worked out at 42.3 µg/mL (≈ 140 µM).

Turning to `CS(=O)(=O)N(CC(=O)N1CCCCC1)Cc1ccccc1`, the kinetic solubility was over 46.6 µg/mL.

Take `COC(=O)c1c(NC(=O)C(C)C)sc(C(=O)N2CCOCC2)c1C`: the solubility (kinetic) was over 53.2 µg/mL.

Compound `NS(=O)(=O)c1ccc(CCNC(=O)COC(=O)C2COc3ccccc3O2)cc1` (stereo not given) yielded a kinetic solubility of over 63.1 µg/mL.

The compound `Cc1cc(C)c(NC(=O)Nc2ccc3c(c2)OCO3)c(C)c1` came in with a solubility (kinetic) of 0.6 µg/mL (≈ 2.01 µM).

`NC1=NC(=O)C(Cc2ccc(OC(F)(F)F)cc2)S1` (stereo not given) gave a solubility (kinetic) of over 43.5 µg/mL.

Consider `COc1ccc(N=CC=C2OC(C)(C)C(C)(C)O2)cc1OC.Cl`, for which the solubility (kinetic) came to 47.1 µg/mL.

The compound `O=C(COc1ccc(Nc2ccccc2)cc1)Nc1ccncc1` came in with a solubility (kinetic) of 9.2 µg/mL (≈ 28.8 µM).

`COc1ccc(OCCC(=O)OCC(=O)NCCc2ccccc2)cc1` registered a solubility (kinetic) of 52.8 µg/mL (≈ 148 µM).

`O=C1NC(=O)/C(=C/c2cc3c(cc2Br)OCO3)S1` gave a kinetic solubility of over 49.2 µg/mL.

Take `Cc1cc(NC(=O)C(C)Sc2nc(-c3ccccc3)cc(=O)[nH]2)no1` (stereo not given): the solubility (kinetic) worked out at 17.4 µg/mL (≈ 48.8 µM).

As to `CNS(=O)(=O)c1cccc(C(=O)OCC(=O)c2ccc3[nH]c(=O)[nH]c3c2)c1`, the solubility (kinetic) is over 58.4 µg/mL.

`CCOc1ccccc1CN1C(=O)C2(OCCO2)c2ccccc21` came in with a kinetic solubility of 5.2 µg/mL (≈ 16 µM).

For the compound `Cc1cc(-c2ccccc2)nc(N(C)C)c1S(C)(=O)=O`, the solubility (kinetic) was determined as 25 µg/mL (≈ 86.1 µM).

Turning to `CN(CC(=O)Nc1ccc(F)c(F)c1F)C(=O)/C=C/c1ccco1`, the solubility (kinetic) was over 50.7 µg/mL.

In turn, `O=C(COc1ccccc1Cl)NC1CC1` displayed a solubility (kinetic) of over 33.9 µg/mL.

Take `Cc1ccc(CNC(=O)c2c(-c3ccccc3)noc2C)cc1`: the solubility (kinetic) was found to be 2.1 µg/mL (≈ 6.85 µM).

Consider `CCOc1ccc(N(CC(=O)Nc2cccc(C)c2)S(C)(=O)=O)cc1`, for which the kinetic solubility was 35.6 µg/mL (≈ 98.2 µM).
